Earlier results, collected in US20140309164A1, “DEUTERATED NUCLEOSIDE PRODRUGS USEFUL FOR TREATING HCV” (priority 2013, published 2014).

Legend:
[1] = pulled from clinical trials
HCV = details: percent of the trial participants; several large clinical trials

CC(C)OC(=O)[C@H](C)NP(=S)(OC[C@H]1O[C@@H](n2ccc(=O)[nH]c2=O)[C@](C)(O)[C@@H]1O)Oc1ccccc1 (some centres unmarked) [VX-135]
sustained viral response rate four weeks after the completion of treatment (SVR4), intent-to-treat analysis (HCV genotype 1; 200 mg VX-135 in combination with daclatasvir, treatment-naive genotype 1, 10 of 12): 83%
completion of treatment rate (SVR4) (HCV genotype 1; eleven patients who completed 12 weeks of treatment, VX-135 in combination with daclatasvir): 91%
serious adverse event (HCV genotype 1; one patient, VX-135 in combination with daclatasvir): serious adverse event of vomiting/nausea

COc1nc(N)nc2c1ncn2[C@@H]1O[C@H](COP(=O)(N[C@@H](C)C(=O)OCC(C)(C)C)Oc2cccc3ccccc23)[C@@H](O)[C@@]1(C)O (some centres unmarked) [BMS-986094]
fatal adverse event in clinical trials [1]: death of a patient due to heart failure

CC(C)OC(=O)[C@H](C)NP(=O)(OC[C@H]1O[C@@H](n2ccc(=O)[nH]c2=O)C(C)(F)C1O)Oc1ccccc1 (some centres unmarked) [Sovaldi, Sofosbuvir]
sustained viral response (SVR) of twelve weeks (HCV): 50-90%
